In patent US20240336594A1, “SIX-MEMBERED ARYL OR HETEROARYL AMIDES, AND COMPOSITION AND USE THEREOF” (BETTA PHARMACEUTICALS CO., LTD, priority 2021, published 2024):

Molecular target: T1, MALT1 (Homo sapiens, UniProt Q9UDY8)
T1 sequence (Q9UDY8 1-824): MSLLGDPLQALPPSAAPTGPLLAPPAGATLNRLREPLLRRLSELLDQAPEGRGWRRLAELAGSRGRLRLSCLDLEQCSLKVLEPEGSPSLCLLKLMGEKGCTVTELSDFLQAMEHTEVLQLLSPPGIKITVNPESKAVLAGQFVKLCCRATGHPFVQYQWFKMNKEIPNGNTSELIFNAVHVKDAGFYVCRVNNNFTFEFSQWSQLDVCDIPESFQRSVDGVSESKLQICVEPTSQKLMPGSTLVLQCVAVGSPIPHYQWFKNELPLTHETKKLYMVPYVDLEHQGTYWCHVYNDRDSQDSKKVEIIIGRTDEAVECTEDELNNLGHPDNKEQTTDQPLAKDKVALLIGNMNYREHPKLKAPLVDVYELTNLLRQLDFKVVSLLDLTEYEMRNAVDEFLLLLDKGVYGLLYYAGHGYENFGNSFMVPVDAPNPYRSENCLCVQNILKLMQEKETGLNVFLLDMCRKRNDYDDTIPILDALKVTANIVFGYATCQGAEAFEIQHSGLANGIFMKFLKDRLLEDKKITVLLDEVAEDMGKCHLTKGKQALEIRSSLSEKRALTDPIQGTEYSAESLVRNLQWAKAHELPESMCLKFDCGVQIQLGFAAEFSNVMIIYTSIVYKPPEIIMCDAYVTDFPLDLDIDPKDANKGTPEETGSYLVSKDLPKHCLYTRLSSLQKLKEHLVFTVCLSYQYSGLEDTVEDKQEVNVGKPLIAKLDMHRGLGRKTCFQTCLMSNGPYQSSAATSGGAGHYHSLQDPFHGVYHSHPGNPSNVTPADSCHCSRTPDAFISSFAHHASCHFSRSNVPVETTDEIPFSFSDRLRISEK
Assay: MALT1 protease inhibition assay (AMC-labeled peptide, fluorescence 360/460)
Assay type: biochemical
Details: substrate Ac-LRSR-AMC, 15 min preincubation, 90 min at 25° C.
Outline: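 Recombinant MALT1 preincubated with test compounds (10-point 1:3 dilutions in DMSO, duplicates) for 15 min at 25 °C in citrate-containing protease buffer with DTT, then AMC-labeled peptide added for 90 min at 25 °C. Inhibition normalized to no-compound (max) and no-enzyme (min) wells; IC50 from curve fit.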

IC50 [nM]	SMILES
≤ 10	C#Cc1cncc(N)c1-c1cc(Cl)c(C(=O)Nc2cnc(C(=O)NCC(F)(F)F)c(Cl)c2)cc1F [Example A470, 5-(4-(3-amino-5-ethynylpyridin-4-yl)-2-chloro-5-fluorobenzamido)-3-chloro-N-(2,2,2-trifluoroethyl)picolinamide]
≤ 10	Nc1cnccc1-c1cc(F)c(C(=O)Nc2cnc(-n3nccn3)c(Cl)c2)cc1Cl [Example A124]
≤ 10	C#Cc1cnccc1-c1cc(Cl)c(C(=O)Nc2cnc(C(=O)NCC)c(Cl)c2)cc1F [Example A428, 3-chloro-5-(2-chloro-4-(3-ethynylpyridin-4-yl)-5-fluorobenzamido)-N-ethylpicolinamide]
≤ 10	Nc1cc(F)ccc1-c1cc(Cl)c(C(=O)Nc2cnc(-n3nccn3)c(Cl)c2)cc1F [Example A121, 2′-amino-5-chloro-N-(5-chloro-6-(2H-1,2,3-triazol-2-yl)pyridin-3-yl)-2,4′-difluoro-[1,1′-biphenyl]-4-carboxamide]
> 500	Nc1cc(F)ccc1-c1cc(Cl)c(C(=O)Nc2cnc(C(=O)NCC(F)(F)C(F)(F)C(F)(F)F)c(Cl)c2)cc1F [Example A458, 5-(2′-amino-5-chloro-2,4′-difluoro-[1,1′-biphenyl]-4-carboxamido)-3-chloro-N-(2,2,3,3,4,4,4-heptafluorobutyl) picolinamide]
≤ 10	C#Cc1c(F)ncc(N)c1-c1cc(Cl)c(C(=O)Nc2cnc(-n3nccn3)c(Cl)c2)cc1F [Example A486, 4-(5-amino-3-ethynyl-2-fluoropyridin-4-yl)-2-chloro-N-(5-chloro-6-(2H-1,2,3-triazol-2-yl)pyridin-3-yl)-5-fluorobenzamide]
≤ 10	C=CC(=O)Nc1cnccc1-c1cc(Cl)c(C(=O)Nc2cnc(-n3nccn3)c(Cl)c2)cc1F [Example A342, 4-(3-acrylamidopyridin-4-y1)-2-chloro-N-(5-chloro-6-(2H-1,2,3-triazol-2-y1)pyridin-3-y1)-5-fluorobenzamide]
10 to 100	C#Cc1cnccc1-c1cc(Cl)c(C(=O)Nc2cnc(C(=O)NCC(=O)N(CC)CC)c(Cl)c2)cc1F [Example A435, 3-chloro-5-(2-chloro-4-(3-ethynylpyridin-4-yl)-5-fluorobenzamido)-N-(2-(diethylamino)-2-oxoethyl)picolinamide]
10 to 100	Cc1nnc(CNC(=O)c2ncc(NC(=O)c3cc(F)c(-c4ccc(F)cc4N)cc3Cl)cc2Cl)o1 [Example A462, 5-(2′-amino-5-chloro-2,4′-difluoro-[1,1′-biphenyl]-4-carboxamido)-3-chloro-N-((5-methyl-1,3,4-oxadiazol-2-yl)methyl)picolinamide]

More lines, now with the values behind:

SMILES	IC50 [nM]
Cc1cc(-c2ccc(F)cc2F)c(F)cc1C(=O)Nc1cnc(-n2nccn2)c(Cl)c1 [Example A116, N-(5-chloro-6-(2H-1,2,3-triazol-2-yl)pyridin-3-yl)-2,2′,4′-trifluoro-5-methyl-[1,1′-biphenyl]-4-carboxamide]	≤ 10
Nc1ccccc1-c1cc(F)c(C(=O)Nc2cnc(-n3nccn3)c(C(F)(F)F)c2)cc1Cl [Example A110]	≤ 10

Tested on: IL-2 secretion of Jurkat cells (PMA/Ionomycin inducing)
Assay: ELISA method to detect IL-2 secretion induced by PMA/Ionomycin
Assay type: cell-based
Details: Homo sapiens, 20 h
Description: 12.5*10^3 Jurkat cells were seeded on a 96-well plate and incubated with various concentrations of compound solution for 30 min. Then, 500×PMA/Ionomycin stimulating factor was diluted with culture medium and added to the cell plate. […] The final concentrations of the compounds were 10000, 3333.3, 1111.1, 370.4, 123.5, 41.2, 13.7, 4.6, 1.5, 0 nM (The final concentration of DMSO is 0.5%). After incubation for 20 h, the supernatant was collected via centrifugation. The final IL-2 concentration was detected by ELISA method (IL-2 Duoset, R&D Systems, DY202). The signal value of each sample at a wavelength of 450 nm was collected by EnVision multifunctional microplate reader and converted to the IL-2 concentration via the ELISACalc.exe software. The IL-2 secretion inhibitory activity IC50 was fitted by GraphPad Prism software. The cell viability was tested simultaneously using the Cell-Titer Glo kit.
The compounds of the present invention show strong inhibitory effect on IL-2 secretion of Jurkat cells (PMA/Ionomycin inducing).

IC50 [nM]	SMILES
113	C#Cc1cncc(N)c1-c1cc(Cl)c(C(=O)Nc2cnc(C(=O)NCC(F)(F)F)c(Cl)c2)cc1F [Example A470, 5-(4-(3-amino-5-ethynylpyridin-4-yl)-2-chloro-5-fluorobenzamido)-3-chloro-N-(2,2,2-trifluoroethyl)picolinamide]
208	CC(=O)c1cncc(N)c1-c1cc(Cl)c(C(=O)Nc2cnc(-n3nccn3)c(Cl)c2)cc1F [Example A529, 4-(3-acetyl-5-aminopyridin-4-yl)-2-chloro-N-(5-chloro-6-(2H-1,2,3-triazol-2-yl)pyridin-3-yl)-5-fluorobenzamide]
252	Nc1cnccc1-c1cc(F)c(C(=O)Nc2cnc(-n3nccn3)c(Cl)c2)cc1Cl [Example A124]
164	C#Cc1cnccc1-c1cc(Cl)c(C(=O)Nc2cnc(C(=O)NCC)c(Cl)c2)cc1F [Example A428, 3-chloro-5-(2-chloro-4-(3-ethynylpyridin-4-yl)-5-fluorobenzamido)-N-ethylpicolinamide]
82	COc1cc(F)ccc1-c1cc(C)c(C(=O)Nc2cnc(-n3nccn3)c(Cl)c2)cc1F [Example A118, N-(5-chloro-6-(2H-1,2,3-triazol-2-yl)pyridin-3-yl)-2,4′-difluoro-2′-methoxy-5-methyl-[1,1′-biphenyl]-4-carboxamide]
43	Nc1cc(F)ccc1-c1cc(Cl)c(C(=O)Nc2cnc(-n3nccn3)c(Cl)c2)cc1F [Example A121, 2′-amino-5-chloro-N-(5-chloro-6-(2H-1,2,3-triazol-2-yl)pyridin-3-yl)-2,4′-difluoro-[1,1′-biphenyl]-4-carboxamide]
259	C#Cc1cnccc1-c1cc(Cl)c(C(=O)Nc2cnc(C(=O)NCC(F)(F)F)c(Cl)c2)cc1F [Example A429, 3-chloro-5-(2-chloro-4-(3-ethynylpyridin-4-yl)-5-fluorobenzamido)-N-(2,2,2-trifluoroethyl)picolinamide]

Continued, molecule first:

SMILES	IC50 [nM]
O=C(Nc1cnc(-n2nccn2)c(C(F)(F)F)c1)c1ccc(-c2ccc(F)cc2Cl)cc1C1CC1 [Example A19, N-(6-(2H-1,2,3-triazol-2-yl)-5-(trifluoromethyl)pyridin-3-yl)-2′-chloro-3-cyclopropyl-4′-fluoro-[1,1′-biphenyl]-4-carboxamide]	632
Cc1cc(-c2ccc(F)cc2Cl)ccc1C(=O)Nc1cnc(-n2nccn2)c(C(F)(F)F)c1 [Example A16, N-(6-(2H-1,2,3-triazol-2-yl)-5-(trifluoromethyl)pyridin-3-yl)-2′-chloro-4′-fluoro-3-methyl-[1,1′-biphenyl]-4-carboxamide]	194
COc1ccccc1-c1ccc(C(=O)Nc2cnc(-n3nccn3)c(C(F)(F)F)c2)c(C)c1 [Example A64]	463
Cc1cc(-c2ccc(F)cc2F)c(F)cc1C(=O)Nc1cnc(-n2nccn2)c(Cl)c1 [Example A116, N-(5-chloro-6-(2H-1,2,3-triazol-2-yl)pyridin-3-yl)-2,2′,4′-trifluoro-5-methyl-[1,1′-biphenyl]-4-carboxamide]	54
Nc1ccccc1-c1cc(F)c(C(=O)Nc2cnc(-n3nccn3)c(C(F)(F)F)c2)cc1Cl [Example A110]	186
O=C(Nc1cnc(-n2nccn2)c(C(F)(F)F)c1)c1cc(F)c(-c2ccc(F)cc2Cl)cc1Cl [Example A105]	134
COc1cc(F)ccc1-c1ccc(C(=O)Nc2cnc(-n3nccn3)c(Cl)c2)c(Cl)c1 [Example A104]	294
Cc1nc(-c2ccc(F)cc2Cl)ncc1C(=O)Nc1cnc(-n2nccn2)c(C(F)(F)F)c1 [Example A12]	285
O=C(Nc1cnc(-n2nccn2)c(Cl)c1)c1ccc(-c2ccc(F)cc2Br)cc1Cl [Example A102]	154
Nc1ccccc1-c1cc(Cl)c(C(=O)Nc2cnc(-n3nccn3)c(C(F)(F)F)c2)cc1Cl [Example A111, N-(6-(2H-1,2,3-triazol-2-yl)-5-(trifluoromethyl)pyridin-3-yl)-2′-amino-2,5-dichloro-[1,1′-biphenyl]-4-carboxamide]	283
COc1ccccc1-c1cc(Cl)c(C(=O)Nc2cnc(-n3nccn3)c(C(F)(F)F)c2)cc1F [Example A67]	325
O=C(Nc1cnc(-n2nccn2)c(C(F)(F)F)c1)c1ccc(-c2ccc(F)cc2Cl)cc1Cl [Example A17, N-(6-(2H-1,2,3-triazol-2-yl)-5-(trifluoromethyl)pyridin-3-yl)-2′,3-dichloro-4′-fluoro-[1,1′-biphenyl]-4-carboxamide]	191
O=C(Nc1cnc(-n2nccn2)c(Cl)c1)c1ccc(-c2ccncc2Cl)cc1Cl [Example A100]	369
COc1ccccc1-c1cc(C)c(C(=O)Nc2cnc(-n3nccn3)c(Cl)c2)cc1F [Example A117, N-(5-chloro-6-(2H-1,2,3-triazol-2-yl)pyridin-3-yl)-2-fluoro-2′-methoxy-5-methyl-[1,1′-biphenyl]-4-carboxamide]	184
Nc1ccccc1-c1cc(Cl)c(C(=O)Nc2cnc(-n3nccn3)c(C(F)(F)F)c2)cc1F [Example A69]	195
O=C(Nc1cnc(-n2nccn2)c(C(F)(F)F)c1)c1cnc(-c2ccc(F)cc2Cl)cc1Cl [Example A18, N-(6-(2H-1,2,3-triazol-2-yl)-5-(trifluoromethyl)pyridin-3-yl)-4-chloro-6-(2-chloro-4-fluorophenyl)nicotinamide]	598
O=C(Nc1cnc(-n2nccn2)c(C(F)(F)F)c1)c1cc(F)c(-c2ccccc2Cl)cc1Cl [Example A106, N-(6-(2H-1,2,3-triazol-2-yl)-5-(trifluoromethyl)pyridin-3-yl)-2′,5-dichloro-2-fluoro-[1,1′-biphenyl]-4-carboxamide]	265
COc1cc(F)ccc1-c1cc(Cl)c(C(=O)Nc2cnc(-n3nccn3)c(C(F)(F)F)c2)cc1F [Example A112, N-(6-(2H-1,2,3-triazol-2-yl)-5-(trifluoromethyl)pyridin-3-yl)-5-chloro-2,4′-difluoro-2′-methoxy-[1,1′-biphenyl]-4-carboxamide]	234
O=C(Nc1cnc(-n2nccn2)c(Cl)c1)c1ccc(-c2ccccc2Cl)cc1Cl [Example A42]	471
